The results in this text go back to patent US10723765B2, “Beta-hairpin peptidomimetics as selective elastase inhibitors” (POLYPHOR AG, priority 2013, dated 2020).

Each structure is given as a SMILES string. Like-named read-outs stand apart in the source and are kept apart here. Non-standard residues stand in square brackets, D forms with d. Residues, ends and D or L forms follow the SMILES beside them. *: point of attachment. hTyr = N[C@@H](CCc1ccc(O)cc1)C(=O)O; NHPhenethyl = c1ccc(CCN*)cc1

Holding throughout (type): biochemical
In assay [1] the target is T1, human neutrophil elastase (Homo sapiens, UniProt P08246).
T1 construct: purchased Serva Electrophoresis, Germany
T1 sequence (P08246 30-267): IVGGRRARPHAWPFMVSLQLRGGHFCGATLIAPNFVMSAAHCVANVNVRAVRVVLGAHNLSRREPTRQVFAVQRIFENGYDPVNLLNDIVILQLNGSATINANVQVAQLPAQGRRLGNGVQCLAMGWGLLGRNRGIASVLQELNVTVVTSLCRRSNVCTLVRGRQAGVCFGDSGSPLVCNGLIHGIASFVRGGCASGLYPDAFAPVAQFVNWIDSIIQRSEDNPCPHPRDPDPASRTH
Kind of assay: Inhibition of human neutrophil elastase (MeOSuc-AAPV-pNA hydrolysis). On the procedure:
2.2. Inhibition of Human Neutrophil Elastase
The ability of the peptides of the invention to inhibit the hydrolysis activity of human neutrophil elastase (Serva Electrophoresis, Germany) using the synthetic tetrapeptidic substrate MeOSuc-AAPV-pNA (Bachem, Switzerland) was determined as follows:
The above substrate (0.3 mM) and human neutrophil elastase (10 nM) were incubated at 37° C. with serial dilutions of the peptides (1% DMSO final) in assay buffer (50 mM Tris, pH 8, 300 mM NaCl, 0.01% Tween20). The release of pNA was followed by monitoring the change in absorbance at 405 nm for 30 minutes. Control assays with the same assay set-up as above, but without peptide, ran linearly. The dose-response data were fitted to the 4-parameter Hill equation providing the IC50 value using Graphpad (Prism 5).

Assay [2] has as its target T2, porcine pancreatic elastase (Sus scrofa, UniProt P00772).
T2 construct: purchased Sigma, USA
Put plainly: Inhibition of porcine pancreatic elastase (MeOSuc-AAA-pNA hydrolysis). As to conditions: for hNE/PPE selectivity: ratio of PPE IC50 to hNE IC50. On the procedure:
2.3. Inhibition of Porcine Pancreatic Elastase
The ability of the peptides of the invention to inhibit the hydrolysis activity of porcine pancreatic elastase (Sigma, USA) using the synthetic tripeptidic substrate MeOSuc-AAA-pNA (Bachem, Switzerland) was determined as follows:
The above substrate (1 mM) and […] porcine pancreatic elastase (15 nM) were incubated at 37° C. with serial dilutions of the peptides (0.5% DMSO final) in assay buffer (50 mM Tris, pH8, 100 mM NaCl, 0.01% Tween20). The release of pNA was followed by monitoring the change in absorbance at 405 nm for 30 minutes. Control assays with the same assay set-up as above, but without peptide, ran linearly. The dose-response data were fitted to the 4-parameter Hill equation providing the IC50 value using Graphpad (Prism 5).

Another assay concerns the target T3, human proteinase 3 (Homo sapiens, UniProt P24158).
T3 construct: purchased Elastin Products Company, USA
T3 sequence (P24158 28-248): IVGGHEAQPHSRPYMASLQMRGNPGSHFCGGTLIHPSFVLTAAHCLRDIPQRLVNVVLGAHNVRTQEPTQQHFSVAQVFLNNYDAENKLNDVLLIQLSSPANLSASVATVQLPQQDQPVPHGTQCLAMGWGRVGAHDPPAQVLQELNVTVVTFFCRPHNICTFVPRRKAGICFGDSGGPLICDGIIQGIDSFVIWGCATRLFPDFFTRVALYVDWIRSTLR
Kind of assay: Inhibition of human proteinase 3 (Boc-Ala-Ala-Nva-SBzl). As to conditions: for hNE/hPr3 selectivity: ratio of hPr3 IC50 to hNE IC50. How it is done:
2.4. Inhibition of Human Proteinase 3
The inactivation of human proteinase 3 (Elastin Products Company, USA) by the peptides of the invention using synthetic tripeptidic substrate Boc-Ala-Ala-Nva-SBzl (Elastin Products Company, USA) was determined as follows:
The above substrate (1 mM), 4,4′-dithiodipyridine (250 μM) and human proteinase 3 (10 nM) were incubated at 37° C. with serial dilutions of the peptides (0.5% DMSO final) in assay buffer (50 mM Tris, pH7.4, 150 mM NaCl, 0.01% Tween20). The reaction process was followed by monitoring the change in absorbance at 340 nm for 30 minutes. Control assays with the same assay set-up as above, but without peptide, ran linearly. The dose-response data were fitted to the 4-parameter Hill equation providing the IC50 value using Graphpad (Prism 5).

The mark [3] stands for this setting: 10 nM enzyme, 0.3 mM substrate, 37° C., pH 8, read-out: Human neutrophil elastase (hNE) IC50.
[4] abbreviates: 15 nM enzyme, 1 mM substrate, 37° C., pH8, read-out: Porcine pancreatic elastase (PPE) IC50.
Setting [5] is: 10 nM enzyme, 1 mM substrate, 37° C., pH7.4, read-out: Human proteinase 3 (hPr3) IC50.

T2 sequence (P00772 27-266): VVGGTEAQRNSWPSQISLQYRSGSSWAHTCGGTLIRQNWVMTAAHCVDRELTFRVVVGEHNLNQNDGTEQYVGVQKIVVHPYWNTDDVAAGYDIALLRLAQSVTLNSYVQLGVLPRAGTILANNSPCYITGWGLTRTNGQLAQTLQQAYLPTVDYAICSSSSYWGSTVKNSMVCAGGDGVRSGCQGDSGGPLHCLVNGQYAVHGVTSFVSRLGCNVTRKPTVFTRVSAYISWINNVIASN

Broadly, the IC50 is the point on the concentration scale where inhibition reaches its midpoint. The compound `CC[C@H](C)[C@@H]1NC(=O)[C@H](CO)NC(=O)[C@H](C)NC(=O)[C@H]([C@@H](C)O)NC(=O)[C@H](CCC(=O)O)NC(=O)[C@H](CCC(=O)NCCc2ccccc2)NC(=O)[C@@H]2CCCN2C(=O)[C@H]2CCCN2C(=O)[C@H](Cc2ccc(O)cc2)NC(=O)[C@H](CCCCN)NC(=O)[C@H](CCC(N)=O)NC(=O)[C@@H]2CCCN2C(=O)[C@@H]2CCCN2C1=O` [Example 15, Cyclo(-Glu(Phenethyl)-Glu-Thr-Ala-Ser-Ile-Pro-Pro-Gln-Lys-Tyr-^DPro-Pro-)] (cyclo(E(NHPhenethyl)ETASIPPQKY[dP]P)) gave an IC50 in assay [1] of 18.6 nM. Also, in assay [2], the IC50 stood at 1620 nM and the hNE/PPE selectivity is listed as 87. For the same compound, at human proteinase 3, the IC50 was 6690 nM and the hNE/hPr3 selectivity was determined as 360.
For the compound `CC[C@H](C)[C@@H]1NC(=O)[C@H](CO)NC(=O)[C@H](C)NC(=O)[C@H]([C@@H](C)O)NC(=O)[C@H](C(C)C)NC(=O)[C@H](CCCNC(=N)N)NC(=O)[C@@H]2CCCN2C(=O)[C@H]2CCCN2C(=O)[C@H]([C@@H](C)O)NC(=O)[C@H](CCCCN)NC(=O)[C@H](CCC(N)=O)NC(=O)[C@@H]2CCCN2C(=O)[C@@H]2CCCN2C1=O` [Example 16, Cyclo(-Arg-Val-Thr-Ala-Ser-Ile-Pro-Pro-Gln-Lys-Thr-^DPro-Pro-)] (cyclo(RVTASIPPQKT[dP]P)), the results for the IC50 (in assay [1] (setting [3]); in assay [2] (setting [4]); at human proteinase 3 (setting [5])) were 26.4 nM, over 100000 nM and over 100000 nM, respectively. Also, the hNE/PPE selectivity in assay [2] is over 3788. Also, the hNE/hPr3 selectivity at human proteinase 3 is recorded as over 3788.
Take `CC[C@H](C)[C@@H]1NC(=O)[C@H](CO)NC(=O)[C@H](C)NC(=O)[C@H]([C@@H](C)O)NC(=O)[C@H](CCc2ccc(O)cc2)NC(=O)[C@H](CCCNC(=N)N)NC(=O)[C@@H]2CCCN2C(=O)[C@H]2CCCN2C(=O)[C@H]([C@@H](C)O)NC(=O)[C@H](CCCCN)NC(=O)[C@H](CCC(N)=O)NC(=O)[C@@H]2CCCN2C(=O)[C@@H]2CCCN2C1=O` [Example 17, Cyclo(-Arg-hTyr-Thr-Ala-Ser-Ile-Pro-Pro-Gln-Lys-Thr-^DPro-Pro-)] (cyclo(R[hTyr]TASIPPQKT[dP]P)): the IC50 was 15.6 nM in assay [1] (setting [3]), 66400 nM in assay [2] (setting [4]) and 83900 nM on human proteinase 3 (setting [5]). The hNE/PPE selectivity in assay [2] was determined as 4256. The hNE/hPr3 selectivity on human proteinase 3 amounted to 5378.
In the case of `CC[C@H](C)[C@@H]1NC(=O)[C@H](CO)NC(=O)[C@H](C)NC(=O)[C@H]([C@@H](C)O)NC(=O)[C@H](C(C)C)NC(=O)[C@H](CCCNC(=N)N)NC(=O)[C@@H]2CCCN2C(=O)[C@H]2CCCN2C(=O)[C@H](Cc2ccc(O)cc2)NC(=O)[C@H](CCCCN)NC(=O)[C@H](CCC(N)=O)NC(=O)[C@@H]2CCCN2C(=O)[C@@H]2CCCN2C1=O` [Example 18, Cyclo(-Arg-Val-Thr-Ala-Ser-Ile-Pro-Pro-Gln-Lys-Tyr-^DPro-Pro-)] (cyclo(RVTASIPPQKY[dP]P)), the IC50 in assay [1] (setting [3]) was 6.9 nM; in assay [2] (setting [4]), 7200 nM; at human proteinase 3 (setting [5]) it was 1800 nM. Besides, the hNE/PPE selectivity in assay [2] turned out to be 1043. Moreover, on human proteinase 3, the hNE/hPr3 selectivity is listed as 261.
